Assay in all cases: Intracellular calcium mobilization (Fluo-4NW) in transfected HEK293T cells
Type in all cases: cell-based
(In general: Calcium flux is commonly read through the fluorescence of an indicator in the cells.)

In test [1] the target is T1, TP A160S mutant (Homo sapiens, UniProt P21731, A160S).
T1 construct: expressed in transfected cells; HEK293T (calcium assays)
T1 sequence (P21731 1-343 A160S): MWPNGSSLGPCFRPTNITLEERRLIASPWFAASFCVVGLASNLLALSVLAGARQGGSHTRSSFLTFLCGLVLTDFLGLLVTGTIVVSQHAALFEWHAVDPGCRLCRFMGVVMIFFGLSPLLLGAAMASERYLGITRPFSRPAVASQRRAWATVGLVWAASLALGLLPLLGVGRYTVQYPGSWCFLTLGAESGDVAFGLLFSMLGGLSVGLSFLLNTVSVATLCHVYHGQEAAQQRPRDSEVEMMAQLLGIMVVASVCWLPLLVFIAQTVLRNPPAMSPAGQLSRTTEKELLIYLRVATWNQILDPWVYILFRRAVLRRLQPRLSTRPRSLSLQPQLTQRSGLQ
To be noted: read-out: EC50 of agonist U46619 (calcium mobilized), transiently transfected HEK293T cells, mean ± S.E. The method, then: (§1) Amino acid substitutions were introduced into the synthetic TPα gene carried by the expression vector pMT4 as described previously, [29]. DNA sequences of all the mutated genes were verified by automated DNA sequencing. To minimize variations in transfection efficiency, the total amount transfected DNA was kept constant in all cases at 1 µg of DNA per 7×10^5 cells. The wild type TP or mutant genes were expressed in COS-1 cells using a DEAE-dextran based transient transfection method, [29], and in HEK293T cells using lipofectamine 2000 (Invitrogen). Except unless specified, the membranes prepared from COS-1 cells were used for radioligand binding assays and immunoblots. For intracellular calcium determination assays and immunofluorescence imaging, HEK293T cells were used. For transient transfections of HEK293T cells using the plasmid pMT4, lipofectamine 2000 (Invitrogen) mediated transfection was used as described by the manufacturer. Membranes were prepared using Buffers A and B and as described previously, [29]. The protein concentration in the resuspended membrane pellet was determined using a modified DC protein assay kit from Bio-Rad Laboratories (Hercules, CA).
(§2) Changes in intracellular calcium were measured by using the fluorescent calcium sensitive dye Fluo-4NW (Invitrogen). After 6–8 hours of transient transfection of HEK293T cells using lipofectamine 2000, 100,000 viable cells were plated into each well of a 96-well tissue culture treated BD-falcon optilux plates. Cells mock transfected with vector pMT4 alone were used as a negative control. Following 24 hours of incubation at 37°C, the media was removed and cells were incubated with the dye Fluo-4NW (Invitrogen) containing 77 µg/ml of probenecid for 1 hour, as recommended by the manufacturer. […] Dose–response curves were generated and EC50 values calculated by nonlinear regression analysis using PRISM software version 5.0 (GraphPad Software Inc, San Diego, CA) after subtracting the responses of mock-transfected cells stimulated with same concentrations of agonists.

The target in test [2] is T2, TP A160V mutant (Homo sapiens, UniProt P21731, A160V).
T2 construct: expressed in transfected cells; HEK293T (calcium assays)
T2 sequence (P21731 1-343 A160V): T1 sequence (P21731 1-343 A160S) with S160V
To be noted: read-out: EC50 of agonist U46619 (calcium mobilized), transiently transfected HEK293T cells, mean ± S.E. The method, then:
as §1, §2

For test [3], the target named is T3, TP F107A mutant (Homo sapiens, UniProt P21731, F107A).
T3 construct: expressed in transfected cells; HEK293T (calcium assays)
T3 sequence (P21731 1-343 F107A): T1 sequence (P21731 1-343 A160S) with F107A, S160A
As to conditions: read-out: EC50 of agonist U46619 (calcium mobilized), transiently transfected HEK293T cells, mean ± S.E. The method, then: as §1, §2

Test [4] deals with T4, TP G164A mutant (Homo sapiens, UniProt P21731, G164A).
T4 construct: expressed in transfected cells; HEK293T (calcium assays)
T4 sequence (P21731 1-343 G164A): T1 sequence (P21731 1-343 A160S) with S160A, G164A
As to conditions: read-out: EC50 of agonist U46619 (calcium mobilized), transiently transfected HEK293T cells, mean ± S.E. The method, then: as §1, §2

For test [5], the target named is T5, TP G164V/V110A double mutant (Homo sapiens, UniProt P21731, G164V/V110A).
T5 construct: expressed in transfected cells; transient, pMT4
T5 sequence (P21731 1-343 V110A/G164V): T1 sequence (P21731 1-343 A160S) with V110A, S160A, G164V
As to conditions: response could be restored upon stimulation with elevated levels of U46619. The method, then: as §1, §2

Numbering of substitutions follows the chain as printed.

Usually EC50 stands for the midpoint of the concentration-response curve.

For the compound `CCCCC[C@H](O)/C=C/[C@@H]1[C@@H](C/C=C\CCCC(=O)O)[C@H]2CO[C@@H]1C2` [U46619], the EC50 is 9.3 ± 0.3 nM in test [1], 9.5 ± 0.2 nM in test [2], 2.5 ± 0.7 nM in test [3] and 2.5 ± 0.2 nM in test [4]. In test [5], the “Calcium response to U46619” value is “reduced calcium response”.
